According to PubChem BioAssay (NCI):
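Values below derive from 48-hour exposures of cells grown in 96-well plates, with endpoints linearly interpolated between the two concentrations bracketing the appropriate inhibition level. Definition used: TGI = concentration required for complete inhibition of growth.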

What was measured:
Assay in all cases: NCI anticancer screen, dose series, 48 h
786-0 renal = tested on: 786-0 renal
A498 renal = tested on: A498 renal
ACHN renal = tested on: ACHN renal
CAKI-1 renal = tested on: CAKI-1 renal
CCRF-CEM leukemia = tested on: CCRF-CEM leukemia
COLO 205 colon = tested on: COLO 205 colon
DLD-1 colon = tested on: DLD-1 colon
DMS 273 small cell lung = tested on: DMS 273 small cell lung
EKVX NSCLC = tested on: EKVX NSCLC
HCC-2998 colon = tested on: HCC-2998 colon
HCT-15 colon = tested on: HCT-15 colon
HL-60(TB) leukemia = tested on: HL-60(TB) leukemia
HOP-18 NSCLC = tested on: HOP-18 NSCLC
HOP-62 NSCLC = tested on: HOP-62 NSCLC
HOP-92 NSCLC = tested on: HOP-92 NSCLC
HT29 colon = tested on: HT29 colon
IGROV1 ovarian = tested on: IGROV1 ovarian
K-562 leukemia = tested on: K-562 leukemia
KM12 colon = tested on: KM12 colon
KM20L2 colon = tested on: KM20L2 colon
LOX IMVI melanoma = tested on: LOX IMVI melanoma
LXFL 529 NSCLC = tested on: LXFL 529 NSCLC
M14 melanoma = tested on: M14 melanoma
M19-MEL melanoma = tested on: M19-MEL melanoma
MALME-3M melanoma = tested on: MALME-3M melanoma
MOLT-4 leukemia = tested on: MOLT-4 leukemia
NCI-H226 lung = tested on: NCI-H226 lung
NCI-H23 lung = tested on: NCI-H23 lung
NCI-H460 lung = tested on: NCI-H460 lung
NCI-H522 lung = tested on: NCI-H522 lung
OVCAR-4 ovarian = tested on: OVCAR-4 ovarian
OVCAR-5 ovarian = tested on: OVCAR-5 ovarian
OVCAR-8 ovarian = tested on: OVCAR-8 ovarian
RPMI-8226 leukemia = tested on: RPMI-8226 leukemia
SF-268 CNS = tested on: SF-268 CNS
SF-295 CNS = tested on: SF-295 CNS
SF-539 CNS = tested on: SF-539 CNS
SK-MEL-2 melanoma = tested on: SK-MEL-2 melanoma
SK-MEL-28 melanoma = tested on: SK-MEL-28 melanoma
SK-MEL-5 melanoma = tested on: SK-MEL-5 melanoma
SK-OV-3 ovarian = tested on: SK-OV-3 ovarian
SN12C renal = tested on: SN12C renal
SNB-19 CNS = tested on: SNB-19 CNS
SNB-75 CNS = tested on: SNB-75 CNS
SNB-78 CNS = tested on: SNB-78 CNS
SW-620 colon = tested on: SW-620 colon
TK-10 renal = tested on: TK-10 renal
U251 CNS = tested on: U251 CNS
UACC-257 melanoma = tested on: UACC-257 melanoma
UACC-62 melanoma = tested on: UACC-62 melanoma
UO-31 renal = tested on: UO-31 renal
XF 498 CNS = tested on: XF 498 CNS
A549 NSCLC = tested on: A549 NSCLC
DMS 114 small cell lung = tested on: DMS 114 small cell lung
HCT-116 colon = tested on: HCT-116 colon
OVCAR-3 ovarian = tested on: OVCAR-3 ovarian
RXF 393 renal = tested on: RXF 393 renal
SR leukemia = tested on: SR leukemia

c1cc2nnsc2s1
TGI (786-0 renal): > 100 µM | TGI (A498 renal): > 100 µM | TGI (ACHN renal): > 100 µM | TGI (CAKI-1 renal): > 100 µM | TGI (CCRF-CEM leukemia): > 100 µM | TGI (COLO 205 colon): > 100 µM | TGI (DLD-1 colon): > 100 µM | TGI (DMS 273 small cell lung): > 100 µM | TGI (EKVX NSCLC): > 100 µM | TGI (HCC-2998 colon): > 100 µM | TGI (HCT-15 colon): > 100 µM | TGI (HL-60(TB) leukemia): > 100 µM | TGI (HOP-18 NSCLC): > 100 µM | TGI (HOP-62 NSCLC): > 100 µM | TGI (HOP-92 NSCLC): > 100 µM | TGI (HT29 colon): > 100 µM | TGI (IGROV1 ovarian): > 100 µM | TGI (K-562 leukemia): > 100 µM | TGI (KM12 colon): > 100 µM | TGI (KM20L2 colon): > 100 µM | TGI (LOX IMVI melanoma): > 100 µM | TGI (LXFL 529 NSCLC): > 100 µM | TGI (M14 melanoma): > 100 µM | TGI (M19-MEL melanoma): > 100 µM | TGI (MALME-3M melanoma): > 100 µM | TGI (MOLT-4 leukemia): > 100 µM | TGI (NCI-H226 lung): > 100 µM | TGI (NCI-H23 lung): > 100 µM | TGI (NCI-H460 lung): > 100 µM | TGI (NCI-H522 lung): > 100 µM | TGI (OVCAR-4 ovarian): > 100 µM | TGI (OVCAR-5 ovarian): > 100 µM | TGI (OVCAR-8 ovarian): > 100 µM | TGI (RPMI-8226 leukemia): > 100 µM | TGI (SF-268 CNS): > 100 µM | TGI (SF-295 CNS): > 100 µM | TGI (SF-539 CNS): > 100 µM | TGI (SK-MEL-2 melanoma): > 100 µM | TGI (SK-MEL-28 melanoma): > 100 µM | TGI (SK-MEL-5 melanoma): > 100 µM | TGI (SK-OV-3 ovarian): > 100 µM | TGI (SN12C renal): > 100 µM | TGI (SNB-19 CNS): > 100 µM | TGI (SNB-75 CNS): > 100 µM | TGI (SNB-78 CNS): > 100 µM | TGI (SW-620 colon): > 100 µM | TGI (TK-10 renal): > 100 µM | TGI (U251 CNS): > 100 µM | TGI (UACC-257 melanoma): > 100 µM | TGI (UACC-62 melanoma): > 100 µM | TGI (UO-31 renal): > 100 µM | TGI (XF 498 CNS): > 100 µM

CC(c1ccc2c(c1)CCC1C2CC2OC23CC=CC(=O)[C@]13C)C1C[C@]2(C)O[C@]2(C)[C@H](O)O1 (some centres undefined)
TGI (786-0 renal): > 100 µM | TGI (A549 NSCLC): > 100 µM | TGI (ACHN renal): > 100 µM | TGI (CAKI-1 renal): 81.3 µM | TGI (CCRF-CEM leukemia): > 100 µM | TGI (COLO 205 colon): > 100 µM | TGI (DMS 114 small cell lung): 4.97 µM | TGI (DMS 273 small cell lung): > 100 µM | TGI (EKVX NSCLC): > 100 µM | TGI (HCC-2998 colon): > 100 µM | TGI (HCT-116 colon): > 100 µM | TGI (HCT-15 colon): > 100 µM | TGI (HL-60(TB) leukemia): 71.9 µM | TGI (HOP-62 NSCLC): 40.3 µM | TGI (HOP-92 NSCLC): > 100 µM | TGI (HT29 colon): > 100 µM | TGI (IGROV1 ovarian): > 100 µM | TGI (K-562 leukemia): > 100 µM | TGI (KM12 colon): > 100 µM | TGI (KM20L2 colon): > 100 µM | TGI (LOX IMVI melanoma): > 100 µM | TGI (LXFL 529 NSCLC): > 100 µM | TGI (M14 melanoma): 33.7 µM | TGI (M19-MEL melanoma): > 100 µM | TGI (MALME-3M melanoma): > 100 µM | TGI (MOLT-4 leukemia): > 100 µM | TGI (NCI-H226 lung): 72 µM | TGI (NCI-H23 lung): 25.2 µM | TGI (NCI-H460 lung): > 100 µM | TGI (NCI-H522 lung): > 100 µM | TGI (OVCAR-3 ovarian): > 100 µM | TGI (OVCAR-5 ovarian): > 100 µM | TGI (OVCAR-8 ovarian): > 100 µM | TGI (RPMI-8226 leukemia): > 100 µM | TGI (RXF 393 renal): 50.5 µM | TGI (SF-268 CNS): > 100 µM | TGI (SF-539 CNS): > 100 µM | TGI (SK-MEL-2 melanoma): > 100 µM | TGI (SK-MEL-28 melanoma): > 100 µM | TGI (SK-MEL-5 melanoma): 28.1 µM | TGI (SK-OV-3 ovarian): > 100 µM | TGI (SN12C renal): > 100 µM | TGI (SNB-19 CNS): > 100 µM | TGI (SNB-75 CNS): > 100 µM | TGI (SR leukemia): 53.6 µM | TGI (SW-620 colon): > 100 µM | TGI (TK-10 renal): > 100 µM | TGI (U251 CNS): 55.3 µM | TGI (UACC-257 melanoma): 56.8 µM | TGI (UACC-62 melanoma): > 100 µM | TGI (UO-31 renal): > 100 µM | TGI (XF 498 CNS): > 100 µM
